The numbers were not newly measured in PMC2615486 (Chemistry & biology, 2008), which cites them from elsewhere.

For series [1], the system named is avidin. The conditions noted are these: ref Green, N.M. 1970.
For series [2] the following is noted: ref Hyre, D.E., Le Trong, I., et al. 2006.

`C[C@@H]1NC(=O)N[C@@H]1CCCCCC(=O)O` [desthiobiotin]: the “dissociation constant for avidin, weaker than that of biotin” value in series [1] is 10^2–10^4 fold.

In the case of “streptavidin: wild-type streptavidin as described in the literature”, the “association rate for biotin” value in series [2] is ~ 1 × 10^8 M^−1s^−1.
